Measured values: patent US8735388B2, “Heterocyclic compounds with affinity to muscarinic receptors” (Abbvie B. V. A., priority 2007, dated 2014)
Read-outs that look alike come from different tables or passages of the source.

What was measured:
[1] = biological target: T1, Muscarine M4 (GPCR-A-MA-ACH M4) (Homo sapiens, UniProt P08173); experiment: Muscarine M4 receptor binding, 3H-4DAMP; conditions: human M4, CHO cells, ligand 0.2 nM, 60 min/22° C., read-out: RB Musc. M4 3H-DAMP pKi (converted)
T1 construct: expressed in transfected cells; host or cells: CHO cells
T1 sequence (P08173 1-479): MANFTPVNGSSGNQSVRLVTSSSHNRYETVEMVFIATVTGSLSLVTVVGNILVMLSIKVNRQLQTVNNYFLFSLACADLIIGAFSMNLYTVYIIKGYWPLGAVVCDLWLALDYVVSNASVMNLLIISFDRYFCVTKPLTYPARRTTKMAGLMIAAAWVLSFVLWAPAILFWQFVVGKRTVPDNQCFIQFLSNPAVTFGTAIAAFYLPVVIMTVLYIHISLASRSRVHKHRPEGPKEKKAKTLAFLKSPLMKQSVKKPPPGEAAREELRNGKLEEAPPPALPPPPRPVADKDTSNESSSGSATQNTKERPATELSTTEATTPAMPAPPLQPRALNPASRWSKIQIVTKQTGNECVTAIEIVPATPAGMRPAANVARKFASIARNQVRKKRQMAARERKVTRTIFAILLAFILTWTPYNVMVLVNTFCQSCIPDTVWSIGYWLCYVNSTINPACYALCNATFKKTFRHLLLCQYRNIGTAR
Procedure, shortened: (§1)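 Human M1 ([3H]-pirenzepine), M3, and M4 ([3H]-4DAMP or [3H]-oxotremorine) receptor preparations incubated with radioligand and compound, first at 10 μM, then at 10-fold lower concentrations if inhibition exceeded 40%. Bound ligand separated by glass-fibre filtration and counted by scintillation. IC50 from Hill fit, converted to Ki via Cheng-Prusoff, reported as pKi.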

[2] = biological target: T1, Muscarine M4 (GPCR-A-MA-ACH M4); experiment: Muscarine M4 receptor binding, 3H-Oxotremorine
Procedure, shortened: as §1

[3] = biological target: T1, Muscarine M4 (GPCR-A-MA-ACH M4); experiment: Muscarine M4 cell-based functional assay (CHO cells, Ca2+ - Aequorin luminescence)
Procedure, shortened: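 CHO cells expressing human M4 were exposed to compound, with Ca2+ response read by aequorin luminescence. Compounds were first tested at 1 μM, then at 10-fold lower concentrations if active; stimulation or inhibition was relative to the reference agonist. EC50/IC50 came from Hill-equation fits.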

[4] = biological target: T2, Muscarine M1 (GPCR-A-MA-ACH M1) (Homo sapiens, UniProt P11229); experiment: Muscarine M1 receptor binding, 3H-Pirenzepine; conditions: human M1, CHO cells, ligand 2 nM, 60 min/22° C., read-out: RB Musc. M1 3H-Pirenzepine pKi (converted)
T2 construct: expressed in transfected cells; host or cells: CHO cells
T2 sequence (P11229 1-460): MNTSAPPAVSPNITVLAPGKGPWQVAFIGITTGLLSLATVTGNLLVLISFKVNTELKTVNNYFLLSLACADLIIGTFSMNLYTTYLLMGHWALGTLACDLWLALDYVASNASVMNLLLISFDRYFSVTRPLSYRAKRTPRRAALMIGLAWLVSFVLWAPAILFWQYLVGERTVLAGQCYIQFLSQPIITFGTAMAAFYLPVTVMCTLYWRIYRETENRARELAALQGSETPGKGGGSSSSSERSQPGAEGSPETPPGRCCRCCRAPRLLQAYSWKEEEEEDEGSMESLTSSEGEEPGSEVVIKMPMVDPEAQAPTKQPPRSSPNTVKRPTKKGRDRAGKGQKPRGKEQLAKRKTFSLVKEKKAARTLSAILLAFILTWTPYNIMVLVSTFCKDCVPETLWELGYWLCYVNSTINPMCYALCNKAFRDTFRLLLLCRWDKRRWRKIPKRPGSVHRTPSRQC
Procedure, shortened: as §1

[5] = biological target: T2, Muscarine M1 (GPCR-A-MA-ACH M1); experiment: Muscarine M1 cell-based functional assay (CHO cells, Ca2+ - FLIPR Fluorimetry); conditions: read-out: Cell funct. Musc. M1 Agonism pEC50 (converted)
[6] = Stability in human liver homogenate (metabolic stability in vitro); type: in vitro ADME; conditions: read-out: t ½
Source text: DÖRJE, F., WESS, J., LAMBRECHT, G., TACKE, R., […], E. and BRANN, M. R. (1991) Antagonist binding profiles of five cloned human muscarinic receptor subtypes. J. Pharmacol. Exp. Ther., 256: 727-733. • […], M. H. (1990) Rat hippocampal muscarinic autoreceptors are similar to the M2 (cardiac) subtype: comparison with hippocampal M1, atrial M2 and ileal M3 receptors. Brit. J. Pharmacol., 99: 753-761. • PERALTA, E. G., ASHKENAZI, A., WINSLOW, J. W., SMITH, D. H., […], J. and CAPON, D. J. (1987) Distinct primary structures, ligand-binding properties and tissue-specific expression of four human muscarinic acetylcholine receptors. EMBO. J., 6: 3923-3929. Determination of Metabolic Stability (In Vitro)
Method used according to procedures described by DI, L. et al., Journal of Biomolecular Screening, Vol. 8, No. 4, 453-462 (2003).

[7] = biological target: T3, Muscarine M2 (GPCR-A-MA-ACH M2) (Homo sapiens, UniProt P08172); experiment: Muscarine M2 receptor binding
T3 construct: expressed in transfected cells; host or cells: CHO cells
T3 sequence (P08172 1-466): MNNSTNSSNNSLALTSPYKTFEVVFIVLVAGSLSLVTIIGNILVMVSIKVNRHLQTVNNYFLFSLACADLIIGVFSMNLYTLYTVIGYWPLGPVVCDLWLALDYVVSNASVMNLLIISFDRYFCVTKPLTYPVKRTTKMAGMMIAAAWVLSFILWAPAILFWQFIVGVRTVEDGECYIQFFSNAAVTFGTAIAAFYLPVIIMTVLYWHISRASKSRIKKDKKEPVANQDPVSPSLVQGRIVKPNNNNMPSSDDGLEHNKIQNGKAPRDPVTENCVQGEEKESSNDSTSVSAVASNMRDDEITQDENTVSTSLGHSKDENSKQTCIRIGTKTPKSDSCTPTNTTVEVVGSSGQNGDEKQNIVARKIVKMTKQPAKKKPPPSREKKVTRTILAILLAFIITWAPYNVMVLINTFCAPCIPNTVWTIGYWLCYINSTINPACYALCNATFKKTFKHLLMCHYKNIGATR

[8] = biological target: T4, Muscarine M2 (GPCR-A-MA-ACH M2) (Cavia porcellus, UniProt H0VRN8); experiment: Muscarine M2 functional assay, isolated organ (left atrium, electrically paced), agonist and antagonist mode; set-up: species or system Guinea Pig; conditions: for EC50: read-out: Cell funct. Musc. M2 Agonism pEC50 (converted)
T4 construct: from tissue; host or cells: guinea pig left atrium (electrically paced)
T4 sequence (H0VRN8 1-466): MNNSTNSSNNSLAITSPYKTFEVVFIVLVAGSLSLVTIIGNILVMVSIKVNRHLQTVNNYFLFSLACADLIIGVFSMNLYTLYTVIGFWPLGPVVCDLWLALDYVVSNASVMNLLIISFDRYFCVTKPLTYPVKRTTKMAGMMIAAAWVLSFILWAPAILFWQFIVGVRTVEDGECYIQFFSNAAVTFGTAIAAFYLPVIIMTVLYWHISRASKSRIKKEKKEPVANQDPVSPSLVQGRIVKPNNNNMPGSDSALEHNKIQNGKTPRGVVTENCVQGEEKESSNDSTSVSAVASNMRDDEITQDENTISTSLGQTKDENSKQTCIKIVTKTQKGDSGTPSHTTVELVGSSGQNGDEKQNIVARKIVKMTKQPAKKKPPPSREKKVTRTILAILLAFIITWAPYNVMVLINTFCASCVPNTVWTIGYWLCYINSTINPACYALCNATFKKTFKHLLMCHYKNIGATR

[9] = biological target: T5, Muscarine M3 (GPCR-A-MA-ACH M3) (Homo sapiens, UniProt P20309); experiment: Muscarine M3 receptor binding
T5 construct: expressed in transfected cells; host or cells: CHO cells

[10] = biological target: T6, Muscarine M3 (GPCR-A-MA-ACH M3) (Cavia porcellus, UniProt H0W1Z3); experiment: Muscarine M3 functional assay, isolated organ (ileum), agonist and antagonist mode; set-up: species or system Guinea Pig; conditions: for EC50: read-out: Cell funct. Musc. M3 Agonism pEC50 (converted)
T6 construct: from tissue; host or cells: guinea pig ileum

[11] = human M4, CHO cells, receptor binding, ligand 6 nM, 30 min/25° C., read-out: RB Musc. M4 3H-Oxotremorine pKi (converted)
[12] = human M4, CHO cells, agonist mode, reference agonist oxotremorine, read-out: Cell funct. Musc. M4 Agonism pEC50 (converted)
[13] = human M1, CHO cells, agonist mode, reference agonist acetylcholine

T6 sequence (H0W1Z3 1-590): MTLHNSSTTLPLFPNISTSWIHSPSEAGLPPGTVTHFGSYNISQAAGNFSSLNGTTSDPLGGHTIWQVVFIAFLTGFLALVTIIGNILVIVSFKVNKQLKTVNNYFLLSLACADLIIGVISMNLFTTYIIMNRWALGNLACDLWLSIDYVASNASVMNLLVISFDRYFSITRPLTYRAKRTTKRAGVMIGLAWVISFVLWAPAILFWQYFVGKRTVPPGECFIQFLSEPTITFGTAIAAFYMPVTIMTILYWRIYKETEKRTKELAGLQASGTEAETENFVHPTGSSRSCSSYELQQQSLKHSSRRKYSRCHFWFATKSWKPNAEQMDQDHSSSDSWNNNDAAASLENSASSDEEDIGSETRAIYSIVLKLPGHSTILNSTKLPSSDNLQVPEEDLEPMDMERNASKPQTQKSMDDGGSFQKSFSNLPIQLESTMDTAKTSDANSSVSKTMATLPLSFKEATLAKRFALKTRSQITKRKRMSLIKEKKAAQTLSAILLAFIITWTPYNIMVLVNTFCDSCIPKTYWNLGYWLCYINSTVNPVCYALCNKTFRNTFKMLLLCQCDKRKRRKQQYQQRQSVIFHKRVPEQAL
T5 sequence (P20309 whole entry): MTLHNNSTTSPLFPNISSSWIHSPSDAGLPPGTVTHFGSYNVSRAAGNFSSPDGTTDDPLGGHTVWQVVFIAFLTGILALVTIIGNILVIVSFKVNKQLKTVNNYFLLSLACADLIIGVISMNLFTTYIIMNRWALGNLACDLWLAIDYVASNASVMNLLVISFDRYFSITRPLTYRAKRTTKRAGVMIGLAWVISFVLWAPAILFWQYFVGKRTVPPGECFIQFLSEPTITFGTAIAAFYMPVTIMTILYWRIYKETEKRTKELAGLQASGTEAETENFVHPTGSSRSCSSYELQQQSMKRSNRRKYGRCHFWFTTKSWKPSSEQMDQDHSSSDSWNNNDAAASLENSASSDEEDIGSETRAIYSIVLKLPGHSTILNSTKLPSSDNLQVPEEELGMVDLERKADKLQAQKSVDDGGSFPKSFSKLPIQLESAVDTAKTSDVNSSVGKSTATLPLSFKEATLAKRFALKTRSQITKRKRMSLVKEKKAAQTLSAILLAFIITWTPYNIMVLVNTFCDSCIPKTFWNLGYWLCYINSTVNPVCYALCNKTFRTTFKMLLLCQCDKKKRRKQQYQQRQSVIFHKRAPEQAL

| Ki [1] [nM] | Ki [2, 11] [nM] | EC50 [3, 12] [nM] | Ki [4] [nM] | EC50 [5, 13] [nM] | half-life [6] [min] | Ki ([7]; human M2, CHO cells, receptor binding) [nM] | Kb ([8]; read-out: Cell funct. Musc. M2 Antagonism pA2 (converted)) [nM] | Ki ([9]; human M3, CHO cells, receptor binding) [nM] | SMILES | melting point [°C] | Ki [2] [nM] | EC50 [3] [nM] | EC50 [5] [nM] | Ki [7] [nM] | Kb [8] [nM] | EC50 [8] [nM] | Ki [9] [nM] | Kb [10] [nM] | EC50 [10] [nM] |
| --- | --- | --- | --- | --- | --- | --- | --- | --- | --- | --- | --- | --- | --- | --- | --- | --- | --- | --- | --- |
| 316 | 100 | > 10000 | 398 |  |  |  |  |  | CCCSc1c[nH]nc1C1=CCCN(C)C1 [Compound 22E, 3-(4-Propylsulfanyl-1H-pyrazol-3-yl)-1,2,5,6-tetrahydro-1-methylpyridine] | 111 |  |  |  |  |  |  |  |  |  |
| 126 | 398 | 501 | 501 | 79.4 | 52 |  |  |  | CN1CCC=C(c2n[nH]cc2SCCCC(F)(F)F)C1 [Compound 22B, 3-[4-(4,4,4-trifluoro-butylsulfanyl)-1H-pyrazol-3-yl]-1,2,5,6-tetrahydro-1-methylpyridine] |  |  |  |  |  |  |  |  |  |  |
| 398 | 316 | > 10000 | 1580 |  |  |  |  |  | CCSc1c[nH]nc1C1=CCCN(C)C1 [Compound 22D, 3-(4-Ethylsulfanyl-1H-pyrazol-3-yl)-1,2,5,6-tetrahydro-1-methylpyridine] | 95 to 97 |  |  |  |  |  |  |  |  |  |
| 39.8 | 63.1 | 126 | 316 | 200 |  |  |  |  | CCCCSc1c[nH]nc1C1=CCCN(C)C1 [Compound 22F, 3-(4-Butylsulfanyl-1H-pyrazol-3-yl)-1,2,5,6-tetrahydro-1-methylpyridine] | 120 to 121 |  |  |  |  |  |  |  |  |  |
| 50.1 | 200 | 316 | 200 | 39.8 | 50 |  |  |  | CCCCCSc1c[nH]nc1C1=CCCN(C)C1 [Compound 22G, 3-(4-Pentylsulfanyl-1H-pyrazol-3-yl)-1,2,5,6-tetrahydro-1-methylpyridine] | 100 to 101 |  |  |  |  |  |  |  |  |  |
| 316 | 200 | 501 | 1000 | 100 |  | 1260 | > 1000 | 398 | CCCCCCOc1c[nH]nc1C1=CCCN(C)C1 [Compound 33B, 3-(4-Hexyloxy-1H-pyrazol-3-yl]-1,2,5,6-tetrahydro-1-methylpyridine] |  |  |  |  |  |  | > 1000 |  | > 1000 | > 1000 |
| 398 | 251 | > 10000 | 1580 |  |  |  |  |  | CSc1c[nH]nc1C1=CCCN(C)C1 [Compound 22A, 3-(4-Methylsulfanyl-1H-pyrazol-3-yl)-1,2,5,6-tetrahydro-1-methylpyridine] | 131.5 |  |  |  |  |  |  |  |  |  |

| SMILES | Ki [1] [nM] | Ki [2, 11] [nM] | EC50 [3, 12] [nM] | Ki [4] [nM] | EC50 [5, 13] [nM] | half-life [6] [min] | Ki ([7]; human M2, CHO cells, receptor binding) [nM] | Kb ([8]; read-out: Cell funct. Musc. M2 Antagonism pA2 (converted)) [nM] | Ki ([9]; human M3, CHO cells, receptor binding) [nM] | melting point [°C] | Ki [2] [nM] | EC50 [3] [nM] | EC50 [5] [nM] | Ki [7] [nM] | Kb [8] [nM] | EC50 [8] [nM] | Ki [9] [nM] | Kb [10] [nM] | EC50 [10] [nM] |
| --- | --- | --- | --- | --- | --- | --- | --- | --- | --- | --- | --- | --- | --- | --- | --- | --- | --- | --- | --- |
| CCCCCCSc1c[nH]nc1C1CN2CCC1CC2 (stereo not drawn) [Compound 49F, 3-(4-Hexylsulfanyl-1H-pyrazol-3-yl)-1-azabicyclo[2.2.2]octane] | 50.1 |  |  | 251 |  |  |  |  |  | 130 | 12.6 | 12.6 | 794 | 398 | > 1000 | > 1000 | 100 | > 1000 | > 1000 |
| CC(C)CCSc1c[nH]nc1C1CN2CCC1CC2 (stereo not drawn) [Compound 49H, 3-[4-(3-Methyl-butylsulfanyl)-1H-pyrazol-3-yl]-1-azabicyclo[2.2.2]octane] | 39.8 |  |  | 158 |  |  |  |  |  | 157 to 159 | 31.6 | > 10000 | 50.1 |  |  |  |  |  |  |
| CCCCCSc1c[nH]nc1C1CN2CCC1CC2 (stereo not drawn) [Compound 49B, 3-(4-Pentylsulfanyl-1H-pyrazol-3-yl)-1-azabicyclo[2.2.2]octane] | 25.1 |  |  | 158 |  |  |  |  |  | 142 to 145 | 7.94 | 6.31 | 10 | 631 | > 1000 | > 1000 | 63.1 | > 1000 | > 1000 |
| CCCCSc1c[nH]nc1C1CN2CCC1CC2 (stereo not drawn) [Compound 49A, 3-(4-Butylsulfanyl-1H-pyrazol-3-yl)-1-azabicyclo[2.2.2]octane] | 15.8 |  |  | 126 |  |  |  |  |  | 162 to 164 | 25.1 | 39.8 | 10 |  |  |  |  |  |  |
| CSc1c[nH]nc1C1CN2CCC1CC2 (stereo not drawn) [Compound 49C, 3-(4-Methylsulfanyl-1H-pyrazol-3-yl)-1-azabicyclo[2.2.2]octane] | 126 |  |  | 1000 |  |  |  |  |  | 145 to 147 | 126 | 501 | 79.4 |  |  |  |  |  |  |
